Literature values as cited in PMC7766159, “Novel Psychoactive Phenethylamines: Impact on Genetic Material” (International Journal of Molecular Sciences, 2020).

Tested on: primary rat hepatocyte
Parameters: method as in PMID 31468101
Conditions: after 24 h; cited from earlier work

In the case of `CNC(C)C(=O)c1cccc(C)c1` (stereo not shown) [Metaphedrone, 3-methylmethcathinone], the “concentration mediating oxidative stress” value is given as 10 µM.
